Laboratory results published in article PMC11501026, “L-Arginine and asymmetric dimethylarginine (ADMA) transport across the mouse blood-brain and blood-CSF barriers: Evidence of saturable transport at both interfaces and CNS to blood efflux” (PLOS ONE, 2024).
“And” between values parts separate entries of the source, which are not always exact repeats. Equal values may be shown once. Where a name gives a salt, the structure may show the parent alone. Read-outs that look alike come from different tables or passages of the source.

How the values were obtained:
[1] = tested on: [^3H]-ADMA transport across the blood-brain and blood-CSF barriers; test: self-inhibition, in situ perfusion: [^3H]-ADMA with 100 μM unlabelled ADMA; type: in vivo, mouse; settings: 100 μM unlabelled ADMA; CSF; 10 minutes; not statistically significant, n of 2
Experimental: (§1) Self-inhibition experiments were also performed. […] Cross-competition experiments were also performed.
(§2) The percentage change in the RTissue uptake values achieved in the absence or presence of an unlabelled inhibitor can be calculated by means of Eq 4.
(§3) %change=RTissue−RInhibition/RTissue×100 Eq 4
(§4) We define RInhibition as the RTissue uptake in the presence of an inhibitor in the artificial plasma.
(§5) A decrease in the uptake of radiolabelled solute in the presence of unlabelled inhibitor is indicative of a saturable influx transport system. Conversely, an increase in the uptake of radiolabelled solute in the presence of unlabelled inhibitor is indicative of a saturable efflux transport system.

[2] = as above; type: in vivo, mouse; settings: male, BALB/c, mouse, other: in situ brain perfusion, with unlabelled ADMA 100 µM, 10 mins, Balb/c ♂, 5ml/min
Experimental: as §1, §2, §3, §4, §5

CAT1 = settings: HEK293 overexpressing CAT1; read-out: IC50, inhibition of CAT1-mediated transport of L-arginine; cited from earlier work
[3] = capillary depletion analysis after in situ brain perfusion; type: in vivo, mouse; set-up: [3H] ADMA and [14C] Sucrose uptake, homogenate / Difference (ADMA minus Sucrose), homogenate / [3H] ADMA and [14C] Sucrose uptake, supernatant / Difference (ADMA minus Sucrose), supernatant / uptake, homogenate / uptake, supernatant: unit not given here; settings: 5ml/min
Experimental: The microvasculature within a sample of brain tissue can be separated from the brain parenchyma using capillary depletion analysis. Following perfusion, the remaining brain tissue after microdissection of the regions described above (typically 200–300 mg) underwent capillary depletion following a method modified for mouse. […]

[4] = 2.5 mins, Balb/c ♂, individual mouse
[5] = 20 mins, Balb/c ♂, individual mouse
[6] = 30 mins, Balb/c ♂, individual mice
[7] = CONTROL, 10 mins, Balb/c ♂, individual mouse
[8] = [3H] ADMA + [14C] Sucrose, 30 mins, Balb/c ♂, individual mice

In the case of `CN(C)C(N)=NCCC[C@H](N)C(=O)O` [ADMA, N^G,N^G-dimethylarginine dihydrochloride], the “reduction of [^3H]-ADMA uptake” value [1] is reported as 89.1%, the Kp at 10 min, 62.5 nM ([2]; caudate nucleus, Difference (ADMA minus Sucrose), caudate nucleus, + 100uM un-labelled ADMA, mean) is reported as 0.0707 and the Kp at 10 min, 62.5 nM ([2]; caudate nucleus, [3H] ADMA + [14C] Sucrose + 100uM un-labelled ADMA, mean, read-out: uptake into caudate nucleus) is reported as 0.102. The Kp at 10 min, 62.5 nM ([2]; choroid plexus, Difference (ADMA minus Sucrose), choroid plexus, + 100uM un-labelled ADMA, individual mice) was 0.47, the Kp at 10 min, 62.5 nM ([2]; choroid plexus, Difference (ADMA minus Sucrose), choroid plexus, + 100uM un-labelled ADMA, mean) was 0.458 and the Kp at 10 min, 62.5 nM ([2]; choroid plexus, [3H] ADMA + [14C] Sucrose + 100uM un-labelled ADMA, individual mice, read-out: uptake into choroid plexus) was 0.617. For the same compound, the Kp at 10 min, 62.5 nM ([2]; choroid plexus, [3H] ADMA + [14C] Sucrose + 100uM un-labelled ADMA, mean, read-out: uptake into choroid plexus) was 0.627, the Kp at 10 min, 62.5 nM ([2]; frontal cortex, Difference (ADMA minus Sucrose), frontal cortex, + 100uM un-labelled ADMA, mean) was 0.0696 and the Kp at 10 min, 62.5 nM ([2]; frontal cortex, [3H] ADMA + [14C] Sucrose + 100uM un-labelled ADMA, mean, read-out: uptake into frontal cortex) was 0.101. It also gave a Kp at 10 min, 62.5 nM ([2]; hippocampus, Difference (ADMA minus Sucrose), hippocampus, + 100uM un-labelled ADMA, mean) of 0.056, a Kp at 10 min, 62.5 nM ([2]; hippocampus, [3H] ADMA + [14C] Sucrose + 100uM un-labelled ADMA, mean, read-out: uptake into hippocampus) of 0.0817 and a Kp at 10 min, 62.5 nM ([2]; occipital cortex, Difference (ADMA minus Sucrose), occipital cortex, + 100uM un-labelled ADMA, individual mice) of 0.0613. The Kp at 10 min, 62.5 nM ([2]; occipital cortex, Difference (ADMA minus Sucrose), occipital cortex, + 100uM un-labelled ADMA, mean) was 0.0767, the Kp at 10 min, 62.5 nM ([2]; occipital cortex, [3H] ADMA + [14C] Sucrose + 100uM un-labelled ADMA, individual mice, read-out: uptake into occipital cortex) was 0.0898 and the Kp at 10 min, 62.5 nM ([2]; occipital cortex, [3H] ADMA + [14C] Sucrose + 100uM un-labelled ADMA, mean, read-out: uptake into occipital cortex) was 0.107. The Kp at 10 min, 62.5 nM ([2]; pineal gland, Difference (ADMA minus Sucrose), pineal gland, + 100uM un-labelled ADMA, mean) was 3.33, the Kp at 10 min, 62.5 nM ([2]; pineal gland, [3H] ADMA + [14C] Sucrose + 100uM un-labelled ADMA, mean, read-out: uptake into pineal gland) was 3.5 and the IC50 (CAT1) was 758 µM. For the same compound, the “Difference (ADMA minus Sucrose), homogenate” value [3, 4] was 0.08009 and 0.1215 and 0.06334 and 0.05481 and 0.07702, the “Difference (ADMA minus Sucrose), pellet” value [3, 4] was 0.01248 and 0.007546 and 0.01055 and 0.0124 and the “Difference (ADMA minus Sucrose), supernatant” value [3, 4] was 0.05051 and 0.03514 and 0.04142 and 0.05329. The “[3H] ADMA and [14C] Sucrose uptake, homogenate” value [3, 4] was 0.09289 and 0.1482 and 0.07368 and 0.06461 and 0.09146, the “[3H] ADMA and [14C] Sucrose uptake, pellet” value [3, 4] was 0.01492 and 0.009191 and 0.01385 and 0.01522 and the “[3H] ADMA and [14C] Sucrose uptake, supernatant” value [3, 4] was 0.06123 and 0.0402 and 0.05083 and 0.0645. For the same compound, the “Difference (ADMA minus Sucrose), homogenate” value [3, 5] was 0.2153 and 0.186 and 0.3039 and 0.2292 and 0.1075, the “Difference (ADMA minus Sucrose), pellet” value [3, 5] was 0.01581 and 0.02784 and 0.03159 and 0.04237 and 0.006518 and the “Difference (ADMA minus Sucrose), supernatant” value [3, 5] was 0.1074 and 0.1722 and 0.2036 and 0.1573 and 0.05863. For the same compound, the “[3H] ADMA and [14C] Sucrose uptake, homogenate” value [3, 5] was 0.2383 and 0.2004 and 0.3388 and 0.2498 and 0.142, the “[3H] ADMA and [14C] Sucrose uptake, pellet” value [3, 5] was 0.01706 and 0.03 and 0.03434 and 0.04519 and 0.01122 and the “[3H] ADMA and [14C] Sucrose uptake, supernatant” value [3, 5] was 0.1162 and 0.1882 and 0.2293 and 0.1698 and 0.07807. The “Difference (ADMA minus Sucrose), homogenate” value [3, 6] was 0.07039 and 0.3122 and 0.07479 and 0.04539 and 0.1073, the “Difference (ADMA minus Sucrose), pellet” value [3, 6] was 0.01163 and 0.01136 and 0.007805 and 0.01411 and the “Difference (ADMA minus Sucrose), supernatant” value [3, 6] was 0.1199 and 0.1088 and 0.02622 and 0.04075 and 0.06521. For the same compound, the “Difference (ADMA minus Sucrose), homogenate” value [3, 7] was 0.2688 and 0.161 and 0.1425 and -0.07309, the “Difference (ADMA minus Sucrose), pellet” value [3, 7] was 0.02507 and 0.05085 and 0.009734 and 0.01917 and -0.0657 and the “Difference (ADMA minus Sucrose), supernatant” value [3, 7] was 0.07602 and 0.1167 and 0.08919 and 0.1193 and 0.02984. The “[3H] ADMA and [14C] Sucrose uptake, homogenate” value [3, 7] was 0.1657 and 0.3684 and 0.1901 and 0.1639 and 0.2325, the “[3H] ADMA and [14C] Sucrose uptake, pellet” value [3, 7] was 0.02884 and 0.07512 and 0.03345 and 0.03555 and 0.0904 and the “[3H] ADMA and [14C] Sucrose uptake, supernatant” value [3, 7] was 0.1611 and 0.1028 and 0.139 and 0.1685. For the same compound, the “uptake, homogenate” value [3, 8] was 0.08533 and 0.3484 and 0.1186 and 0.07545 and 0.1502, the “uptake, pellet” value [3, 8] was 0.01575 and 0.016 and 0.01288 and 0.01992 and the “uptake, supernatant” value [3, 8] was 0.135 and 0.1332 and 0.05406 and 0.0758 and 0.09832. For the same compound, the Kp at 20 min, 62.5 nM ([3]; male, BALB/c, mouse, capillary depletion pellet (endothelial cell-enriched), Difference (ADMA minus Sucrose), pellet, 20 mins, mean) was 0.0248.
